PMC9861175, “Diversity and Biosynthetic Potential of Fungi Isolated from St. John’s Island, Singapore” (International Journal of Molecular Sciences, 2023)
Read-outs that look alike come from different tables or passages of the source.

Assays:
[1] = system: Staphylococcus aureus ATCC 25923; assay: Antibacterial broth microdilution growth inhibition (OD600) against S. aureus; format: cell-based; details: for IC50: read-out: IC50 SA
Procedure: (§1) Dried extracts were resuspended in MeOH to obtain 20 mg/mL sample concentration followed by sonication for complete solubilizing. Ten microliters (10 µL) of the extracts per well were added to 96-well plates followed by drying via centrifugal vacuum concentrator. Upon drying, 100 µL of 10% DMSO was added to each well to obtain a sample concentration of 2 mg/mL. Ten microliters (10 µL) were subsequently used for the antimicrobial bioassays where 90 µL of the respective microbial cultures were added to each sample, leading to a final extract concentration of 200 µg/mL. For preliminary screening, extracts from all 30 fungi were evaluated for antimicrobial activities using the highest concentration of 200 µg/mL.
(§2) For the antibacterial bioassays, the test microorganisms S. aureus, Methicillin-resistant S. aureus (MRSA) and E. coli were plated on Mueller-Hinton II agar (Merck, Germany) and incubated overnight at 37 °C. Colonies were added to a glass tube containing 0.85% saline solution until the turbidity was equivalent to 0.5 McFarland Standard (approximate cell density 1.5 × 10^8 CFU/mL). Cell suspensions were then diluted in MH2 liquid media to obtain a final cell density of 5 × 10^5 CFU/mL. Ninety microliters (90 µL) of cell suspensions were added to 10 µL of extracts in the 96-well bioassay plates and incubated at 37 °C for 20 h. For each extract tested, three replicates were used. The optical density (OD) of each well was measured using a Hidex Sense microplate reader (Hidex, Finland) at 600 nm. Percentage growth inhibition was calculated according to the following formula with the quality of the bioassay assessed based on the Z-prime analysis. A Z-prime of ≥0.7 indicates the robustness of the high throughput screening data. Gentamicin was used as the standard control against S. aureus and E. coli while vancomycin was used as the standard control in the MRSA assay.

[2] = system: A549 human lung carcinoma cells ATCC CCL-185; assay: Cytotoxicity assay (PrestoBlue, 72 h) on A549 cells; format: cell-based; details: for IC50: Homo sapiens, read-out: IC50 A549
Procedure: The cytotoxic effect of the isolated compounds on the A549 human lung carcinoma cell line was determined as described previously. A549 cells at a concentration of 3.3 × 10^4 cells/mL in Dulbecco’s Modified Eagle Medium (DMEM, Gibco, Life Technologies, Bleiswijk, The Netherlands) were treated with isolated compounds at concentrations ranging from 0.1 μM to 200 μM and incubated for 72 h at 37 °C in 5% CO2 and 95% relative humidity. Cytotoxic effect of the compounds was measured after the addition of PrestoBlue™ cell viability reagent (Thermo Fisher Scientific, USA) and incubation for 2 h by reading of the plates’ fluorescence at an excitation wavelength of 560 nm and emission wavelength of 590 nm using the Tecan Infinite M1000 Pro reader. Puromycin served as the standard control.

[3] = system: Escherichia coli ATCC 25922; assay: Antibacterial broth microdilution growth inhibition (OD600) against E. coli; format: cell-based; details: read-out: IC50 EC
Procedure: as §1, §2

[4] = mycotoxins associated with food spoilage; cited from earlier work
[5] = system: Methicillin-resistant Staphylococcus aureus ATCC 33591; assay: Antibacterial broth microdilution growth inhibition (OD600) against MRSA; format: cell-based; details: 20 h
Procedure: as §1, §2

[6] = system: C. albicans ATCC 10231; assay: Antifungal growth inhibition (OD) screen against C. albicans; format: cell-based; details: Candida albicans, read-out: IC50 CA
Procedure: as §1
For the C. albicans screen, a single colony from freshly streaked C. albicans on Sabouraud dextrose agar (SDA) was inoculated into 25-mL of Sabouraud liquid medium (SLM) and incubated at 35 °C with shaking at 150 rpm for 18 hrs. Subsequently, 1% of the culture (250 µL) was prepared with SLM and incubated at 35 °C with shaking for 6 h. OD600 was monitored until it reached approximately 0.8. Cell density (D) of the culture was calculated using the following equation: D = [(30 × OD600) − 8] × 10^6 CFU/mL. Final cell densities were adjusted to 2.5 × 10^5 CFU/mL and inoculated as 90 µL suspensions into 96-well plates. Similar to the antibacterial assays, upon addition of 10 µL of extracts to the cell suspensions, the plates were incubated at 37 °C for 20 h prior to OD readings. For each extract tested, three technical replicates were used. Amphotericin B was used as the antifungal standard control in C. albicans screen.

[7] = system: human hepatoma cell line; details: cited from earlier work
[8] = system: L5178Y mouse lymphoma cell line; set-up: method as in doi:10.1016/j.phytol.2014.12.010; details: cited from earlier work
[9] = Staphylococcus aureus, ATCC25923, 20 h, isolated compounds, S. aureus ATCC 25923, 20 h, 37 °C
[10] = ATCC25922, isolated compounds, E. coli ATCC 25922, 20 h, 37 °C
[11] = Staphylococcus aureus, read-out: IC50 MRSA, isolated compounds, MRSA ATCC 33591, 37 °C
[12] = ATCC10231, isolated compounds, C. albicans ATCC 10231, 20 h
[13] = Staphylococcus aureus, ATCC25923, isolated compounds, S. aureus ATCC 25923, 20 h, 37 °C
[14] = isolated compounds, A549 cells, 72 h
[15] = Staphylococcus aureus, isolated compounds, MRSA ATCC 33591, 37 °C, read-out: IC50 MRSA
[16] = Staphylococcus aureus, read-out: IC50 MRSA

Row | Compound | IC50 ([2]; A549, 72 h) [µM] | IC50 [3, 10] [µM] | IC50 [6, 12] [µM] | IC50 [1, 13] [µM] | IC50 [2, 14] [µM] | other results
1 | COC1=C(c2c(OC)cc3cc4c(c(O)c3c2O)C(=O)OC(C)C4)C(=O)c2c(cc3c(c2O)C(=O)OC(C)C3)C1=O (stereo not shown) [Viomellein] | 42 | > 100 | 17.9 | – | – | IC50 [1, 9]: 3.2 µM; liver and kidney damage in animals [4]: known to cause liver and kidney damage in animals; IC50 [5, 11]: 2.9 µM
2 | CNC(C)C1CCC(N)C(OC2C(N)CC(N)C(OC3OCC(C)(O)C(NC)C3O)C2O)O1 (stereo not shown) [Gentamicin, reference compound] | – | 0.67 | – | 0.22 | – | –
3 | COC1=C(C2=C(OC)C(=O)c3cc4c(c(O)c3C2=O)C(=O)OC(C)C4)C(=O)c2c(cc3c(c2O)C(=O)OC(C)C3)C1=O (stereo not shown) [Xanthomegnin] | 65.6 | > 200 | 18.6 | – | – | IC50 [1, 9]: 19.2 µM; liver and kidney damage in animals [4]: known to cause liver and kidney damage in animals; IC50 [5, 11]: 35.3 µM
4 | COC(=O)c1ccccc1NC(=O)C(CCSC)NC(=O)c1cnc2c(n1)c(=O)n(C)c(=O)n2C (stereo not shown) [Penilumamide B] | – | > 200 | > 200 | > 200 | 113 | IC50 [5, 15]: > 200 µM
5 | C[C@@H]1[C@H](O)[C@@H](C)/C=C/C=C/C=C/C=C/C=C/C=C/C=C/[C@H](O[C@@H]2O[C@H](C)[C@@H](O)[C@H](N)[C@@H]2O)C[C@@H]2O[C@](O)(C[C@@H](O)C[C@@H](O)[C@H](O)CC[C@@H](O)C[C@@H](O)CC(=O)O[C@H]1C)C[C@H](O)[C@H]2C(=O)O [Amphotericin B, reference compound] | – | – | 0.14 | – | – | –
6 | COc1cc2cc3c(c(O)c2c(O)c1-c1c(OC)cc2cc4c(c(O)c2c1O)C(=O)O[C@H](C)C4)C(=O)O[C@H](C)C3 [Vioxanthin] | 77.1 | – | – | – | – | IC50 ([1]; Staphylococcus aureus, ATCC25923, 20 h): 3 µM; IC50 ([3]; ATCC25922, 20 h): > 200 µM; liver and kidney damage in animals [4]: known to cause liver and kidney damage in animals; IC50 [5, 16]: 1.6 µM; IC50 ([6]; ATCC10231, 20 h): 36.4 µM
7 | COc1ccc(C[C@H](N)C(=O)N[C@H]2[C@@H](O)[C@H](n3cnc4c(N(C)C)ncnc43)O[C@@H]2CO)cc1 [Puromycin, reference compound] | – | – | – | – | 0.25 | –
8 | Penilumamide E | – | – | – | – | – | cytotoxicity activity against a human hepatoma cell line [7]: weak cytotoxicity activity
9 | CN[C@H](CC(C)C)C(=O)N[C@H]1C(=O)N[C@@H](CC(N)=O)C(=O)N[C@H]2C(=O)N[C@H]3C(=O)N[C@H](C(=O)N[C@H](C(=O)O)c4cc(O)cc(O)c4-c4cc3ccc4O)[C@H](O)c3ccc(c(Cl)c3)Oc3cc2cc(c3O[C@@H]2O[C@H](CO)[C@@H](O)[C@H](O)[C@H]2O[C@H]2C[C@](C)(N)[C@H](O)[C@H](C)O2)Oc2ccc(cc2Cl)[C@H]1O [Vancomycin, reference compound] | – | – | – | – | – | IC50 [5, 16]: 1.5 µM
10 | COC(=O)c1ccccc1NC(=O)C(CC[S+](C)[O-])NC(=O)c1cnc2c(=O)n(C)c(=O)n(C)c2n1 (stereo not shown) [Penilumamide A] | – | > 200 | > 200 | 88 | 100 | antimicrobial activity against S. aureus (in words) ([1]; isolated compounds): weak; cytotoxic activity against A549 cells (in words) ([2]; isolated compounds): weak; cytotoxicity activity against a human hepatoma cell line [7]: weak cytotoxicity activity; IC50 [5, 15]: > 200 µM
11 | COc1ccc(C2SSC34CC5(O)C(O)C=CC(O)C5ON3C(=O)C2N(C)C4=O)c(O)c1OC (stereo not shown) [Pretrichodermamide C] | > 200 | > 200 | > 200 | – | – | IC50 [1, 9]: < 50 µM; IC50 ([1]; isolated compounds, S. aureus ATCC 25923, 20 h, 37 °C): 34.7 µM; cytotoxic activity against A549 cells (in words) ([2]; isolated compounds): no cytotoxic activity; activity against the L5178Y mouse lymphoma cell line [8]: inactive; IC50 [5, 11]: < 50 µM; IC50 ([5]; read-out: IC50 MRSA, isolated compounds, MRSA ATCC 33591, 37 °C): 41.6 µM
12 | CC(NC(=O)c1cnc2c(n1)c(=O)n(C)c(=O)n2C)C(=O)Nc1ccccc1C(N)=O (stereo not shown) [Penilumamide D] | – | > 200 | > 200 | > 200 | > 200 | cytotoxicity activity against a human hepatoma cell line [7]: weak cytotoxicity activity; IC50 [5, 15]: > 200 µM
